# From article PMC4710668, “Bioactivation of food genotoxicants 5-hydroxymethylfurfural and furfuryl alcohol by sulfotransferases from human, mouse and rat: a comparative study” (Archives of Toxicology, 2014)
# How the values were obtained:
# Test in all cases: HMF sulfoconjugation assay
# Format in all cases: biochemical
# rSult1a1 = molecular target: T1, rSult1a1 (Rattus norvegicus, UniProt P17988)
# T1 construct: made in house; host or cells: Salmonella typhimurium TA1538 (cytosolic fraction, enzyme not purified)
# T1 sequence (P17988 whole entry): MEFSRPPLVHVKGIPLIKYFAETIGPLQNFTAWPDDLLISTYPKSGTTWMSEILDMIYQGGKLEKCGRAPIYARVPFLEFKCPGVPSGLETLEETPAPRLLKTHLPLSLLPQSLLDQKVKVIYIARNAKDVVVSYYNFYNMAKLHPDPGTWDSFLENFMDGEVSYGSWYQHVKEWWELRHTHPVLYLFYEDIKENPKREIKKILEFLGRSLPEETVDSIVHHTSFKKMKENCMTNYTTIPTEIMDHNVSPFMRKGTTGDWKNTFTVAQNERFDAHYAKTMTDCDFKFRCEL
# Protocol: (§1) Cytosolic fractions containing individual SULT forms were prepared from transgenic S. typhimurium TA1538. Table S1 in the Supplementary Material provides a summary of the thirty SULTs used in the current study together with references describing the cloning of the respective S. typhimurium TA1538 strains. The expressed SULT forms are denoted with the prefixes h, m and r for human, mouse and rat enzymes, respectively. Bacteria were grown in Luria Broth medium containing ampicillin (100 µg/ml) by stirring for 8 h at 200 revolutions/min at 37 °C. The bacterial suspensions were centrifuged at 5,000 g for 10 min. The sediments were washed twice with 25 ml of 10 mM potassium phosphate buffer (pH 7.4)/50 mM potassium chloride (KCP buffer) and centrifuged again. The pellets were taken up in 800 µl KCP buffer and sonicated thrice for 15 s with 30 s pauses in between. The soluble fraction was attained by centrifuging for 1 h at 100,000 g. The supernatants (in the following termed cytosolic preparations) were frozen at −80 °C. The protein concentrations were determined according to a bicinchoninic acid (BCA) assay protocol. The SULT concentrations in the cytosolic preparations were estimated after electrophoretic separation and immunodetection using inclusion bodies of different SULT forms as standards (Teubner et al. [2007]). The preparation of SULT inclusion bodies and the immunodetection of SULTs is described in the Supplementary Material, which also contains a representative immunoblot of different amounts of rSult1a1standard and a cytosolic preparation of S. typhimurium expressing rSult1a1 (Fig. S1).
# (§2) The reactions were conducted in mixtures of 100 µl containing 25–200 µg protein, 50 mM potassium phosphate buffer (pH 7.4), 5 mM MgCl2, 50 µM PAPS and different concentrations of HMF at 37 °C. Preliminary experiments ensured that measurements were recorded under ‘linear’ conditions, i.e., doubling of protein concentration or incubation time was doubling the amount of sulfate ester formed. The reactions were stopped after 30 min by adding 300 µl ice-cold 2-propanol, mixed and centrifuged at 15,000 g for 10 min.
# (§3) SMF concentrations of the clear supernatants were analyzed by UPLC-MS/MS. The protocol was adapted from the quantification of SMF in plasma samples of HMF-treated mice (Monien et al. [2009]). In short, the supernatants were analyzed using a UPLC system (Waters) connected to a Quattro Premier XE tandem quadrupole mass spectrometer (Waters) using the negative electrospray ionization mode. Samples of 4 µl were injected into a HSS T3 column (1.8 µm, 2.1 × 100 mm; Waters) and eluted with an isocratic flow of 0.35 ml/min 10 mM ammonium acetate/methanol (95:5). The fragmentation reactions of SMF yielding two principal ions, the sulfate ion radical (m/z = 204.9 → 96.0) and the protonated sulfonate ion (m/z = 204.9 → 81.0) were monitored. The tune parameters were as follows: temperature of the electrospray source 120 °C; desolvation temperature 475 °C; desolvation gas nitrogen (800 l/h); cone gas nitrogen (100 l/h); collision gas argon (indicated cell pressure ~5 × 10^−3 mbar). For the fragmentation of SMF, collision energies were 20 and 23 eV for the transitions m/z = 204.9 → 81.0 and m/z = 204.9 → 96.0, respectively. The dwell time was set to 100 ms, and capillary voltage was set to 0.35 kV. The cone and RF1 lens voltages were 32 and 0.2 V, respectively. SMF was quantified using an external calibration line that was linear in the concentration range of 1.0 nM (4 fmol/injection) to 2,500 (10 pmol/injection) SMF (r ^2 ≥ 0.99). Data acquisition and handling were performed with MassLynx 4.1 software (Waters). The limit of detection (LOD) for this technique of 2.5 nM SMF has been reported (Monien et al. [2009]). In the current study, this corresponds to 10 fmol SMF per injection or a reaction rate of 0.5 pmol SMF/mg/min.
# mSult1a1 = molecular target: T2, mSult1a1 (Mus musculus, UniProt P52840)
# T2 construct: made in house; host or cells: Salmonella typhimurium TA1538 (cytosolic fraction, enzyme not purified)
# T2 sequence (P52840 whole entry): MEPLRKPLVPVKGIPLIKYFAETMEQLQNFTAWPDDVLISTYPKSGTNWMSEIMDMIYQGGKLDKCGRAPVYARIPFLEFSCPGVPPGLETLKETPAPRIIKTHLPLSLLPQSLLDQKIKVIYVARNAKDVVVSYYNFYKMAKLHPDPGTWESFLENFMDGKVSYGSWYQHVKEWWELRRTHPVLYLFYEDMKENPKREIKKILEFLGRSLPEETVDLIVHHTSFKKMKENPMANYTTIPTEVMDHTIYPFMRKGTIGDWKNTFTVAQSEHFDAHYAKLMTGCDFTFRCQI
# Protocol: as §1, §2, §3
# mSult2a1 = molecular target: T3, mSult2a1 (Mus musculus, UniProt P52843)
# T3 construct: made in house; host or cells: Salmonella typhimurium TA1538 (cytosolic fraction, enzyme not purified)
# T3 sequence (P52843 1-285): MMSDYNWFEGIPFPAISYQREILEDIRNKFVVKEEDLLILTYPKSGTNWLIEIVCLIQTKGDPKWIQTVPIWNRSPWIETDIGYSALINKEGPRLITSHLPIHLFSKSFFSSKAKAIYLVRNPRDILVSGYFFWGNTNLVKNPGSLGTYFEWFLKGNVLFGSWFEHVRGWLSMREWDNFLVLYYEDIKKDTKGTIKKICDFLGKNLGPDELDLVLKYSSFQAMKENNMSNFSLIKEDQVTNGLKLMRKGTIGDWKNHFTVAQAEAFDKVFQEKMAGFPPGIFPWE
# Protocol: as §1, §2, §3
# mSult2b1b = molecular target: T4, mSult2b1b (Mus musculus, UniProt O35400)
# T4 construct: made in house; host or cells: Salmonella typhimurium TA1538 (cytosolic fraction, enzyme not purified)
# T4 sequence (O35400 1-338): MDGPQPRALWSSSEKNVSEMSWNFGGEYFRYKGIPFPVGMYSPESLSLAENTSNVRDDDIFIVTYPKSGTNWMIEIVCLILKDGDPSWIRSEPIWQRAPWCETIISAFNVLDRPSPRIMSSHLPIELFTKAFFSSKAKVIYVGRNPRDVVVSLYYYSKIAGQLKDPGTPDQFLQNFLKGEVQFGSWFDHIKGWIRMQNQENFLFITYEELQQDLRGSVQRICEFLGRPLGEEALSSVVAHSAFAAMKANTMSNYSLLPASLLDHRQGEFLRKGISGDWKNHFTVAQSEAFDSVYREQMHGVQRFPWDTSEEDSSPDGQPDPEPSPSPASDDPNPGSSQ
# Protocol: as §1, §2, §3
# hSULT1A1 = molecular target: T5, hSULT1A1 (Homo sapiens, UniProt P50225)
# T5 construct: made in house; host or cells: Salmonella typhimurium TA1538 (cytosolic fraction, not purified)
# T5 sequence (P50225 whole entry): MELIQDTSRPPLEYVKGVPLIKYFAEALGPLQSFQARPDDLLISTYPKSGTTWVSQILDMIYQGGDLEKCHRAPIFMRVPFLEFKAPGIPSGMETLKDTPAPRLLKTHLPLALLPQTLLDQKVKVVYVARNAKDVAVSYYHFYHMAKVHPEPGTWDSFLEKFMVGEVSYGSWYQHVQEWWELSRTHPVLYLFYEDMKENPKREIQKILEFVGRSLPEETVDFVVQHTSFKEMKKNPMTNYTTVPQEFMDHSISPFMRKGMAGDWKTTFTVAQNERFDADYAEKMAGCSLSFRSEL
# Protocol: as §1, §2, §3
# hSULT1C3 = molecular target: T6, hSULT1C3 (Homo sapiens, UniProt Q6IMI6)
# T6 construct: made in house; host or cells: Salmonella typhimurium TA1538 (cytosolic fraction, not purified)
# T6 sequence (Q6IMI6 whole entry): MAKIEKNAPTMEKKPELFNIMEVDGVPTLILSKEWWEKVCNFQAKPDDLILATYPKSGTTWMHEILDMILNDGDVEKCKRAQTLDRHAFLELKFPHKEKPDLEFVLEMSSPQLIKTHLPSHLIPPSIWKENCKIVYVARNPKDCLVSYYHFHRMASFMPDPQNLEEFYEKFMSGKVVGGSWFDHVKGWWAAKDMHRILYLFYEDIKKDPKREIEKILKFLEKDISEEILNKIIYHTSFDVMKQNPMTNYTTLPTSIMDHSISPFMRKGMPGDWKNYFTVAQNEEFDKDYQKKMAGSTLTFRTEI
# Protocol: as §1, §2, §3
# [1] = HMF sulfoconjugation, Michaelis-Menten fit
smiles,measurement,setting,value
"O=Cc1ccc(CO)o1 [HMF, 5-Hydroxymethylfurfural]",Rate of sulfoconjugation,rSult1a1; 0.1 mM HMF,<0.5 pmol/mg/min
same,Rate of sulfoconjugation,rSult1a1; 1 mM HMF,6.5 ± 2.1 pmol/mg/min
same,Rate of sulfoconjugation,rSult1a1; 10 mM HMF,43.6 ± 13.7 pmol/mg/min
same,Rate of sulfoconjugation,rSult1a1; 100 mM HMF,36.1 ± 16.8 pmol/mg/min
same,K M,rSult1a1; [1],4.9 ± 0.7 mM
same,Rate of sulfoconjugation,mSult1a1; 0.1 mM HMF,76.6 ± 14.4 pmol/mg/min
same,Rate of sulfoconjugation,mSult1a1; 1 mM HMF,722 ± 93 pmol/mg/min
same,Rate of sulfoconjugation,mSult1a1; 10 mM HMF,"2,010 ± 210 pmol/mg/min"
same,Rate of sulfoconjugation,mSult1a1; 100 mM HMF,"1,970 ± 70 pmol/mg/min"
same,K M,mSult1a1; [1],2.0 ± 0.3 mM
same,Rate of sulfoconjugation,mSult2a1; 0.1 mM HMF,<0.5 pmol/mg/min
same,Rate of sulfoconjugation,mSult2a1; 1 mM HMF,1.3 ± 0.2 pmol/mg/min
same,Rate of sulfoconjugation,mSult2a1; 10 mM HMF,9.0 ± 0.9 pmol/mg/min
same,Rate of sulfoconjugation,mSult2a1; 100 mM HMF,13.1 ± 1.7 pmol/mg/min
same,Rate of sulfoconjugation,mSult2b1b; 0.1 mM HMF,<0.5 pmol/mg/min
same,Rate of sulfoconjugation,mSult2b1b; 1 mM HMF,<0.5 pmol/mg/min
same,Rate of sulfoconjugation,mSult2b1b; 10 mM HMF,<0.5 pmol/mg/min
same,Rate of sulfoconjugation,mSult2b1b; 100 mM HMF,<0.5 pmol/mg/min
same,"ratio of HMF sulfoconjugation efficiency, hSULT1A1 vs hSULT1C2",hSULT1A1,about 19 times
same,Rate of sulfoconjugation,hSULT1A1; 0.1 mM HMF,20.4 ± 2.8 pmol/mg/min
same,Rate of sulfoconjugation,hSULT1A1; 1 mM HMF,171 ± 18 pmol/mg/min
same,Rate of sulfoconjugation,hSULT1A1; 10 mM HMF,641 ± 100 pmol/mg/min
same,Rate of sulfoconjugation,hSULT1A1; 100 mM HMF,699 ± 170 pmol/mg/min
same,K M,hSULT1A1; [1],3.2 ± 0.4 mM
same,Rate of sulfoconjugation,hSULT1C3; 0.1 mM HMF,<0.5 pmol/mg/min
same,Rate of sulfoconjugation,hSULT1C3; 1 mM HMF,1.0 ± 0.1 pmol/mg/min
same,Rate of sulfoconjugation,hSULT1C3; 10 mM HMF,7.2 ± 0.9 pmol/mg/min
same,Rate of sulfoconjugation,hSULT1C3; 100 mM HMF,3.6 ± 0.2 pmol/mg/min
